Patent US8383888B1, “Plants and plant products useful for biofuel manufacture and feedstock, and methods of producing same” (University of Kentucky Research Foundation, priority 2008, dated 2013)

Assays:
Arabidopsis thaliana = test: Growth of plants on plates containing isoxaben; assay type: in vivo; conditions: 2 nM isoxaben in plates
Experimental: Studies with a plant (Arabidopsis thaliana) expressing a CESA-1 with a A903V mutation (“qxr” or “ags”) have shown significant reorganization of the mutant cell wall. Feedback between the gene mutation and cell wall structure was determined by FTIR analysis of the polysaccharide fingerprint region. The following conclusions were ascertained; firstly, the qxr mutant has aberrant root hair formation, which can be observed using light microscopy and have been described for cell wall gene deletion alleles. The highly elongated cell shape of root hairs has been used as model to define molecular players in cell elongation and a plausible explanation for the altered root hair phenotype is consistent with a defect in cell wall structure. […] Next, the inventors explored whether treating qxr mutants with the cellulose inhibitor isoxaben at minute doses induced a synergistic effect.

Arabidopsis ixr mutants = conditions: cited from earlier work
plants = conditions: previous studies; cited from earlier work

## CCC(C)(CC)c1cc(NC(=O)c2c(OC)cccc2OC)on1 [isoxaben, N-(3-[1-ethyl-1-methylpropyl]-5-isoxazolyl)-2,6,dimethoxybenzamide]
Arabidopsis thaliana; qxr (CESA-1 A903V)
  effect on qxr mutant plants: dramatically swollen organs
Arabidopsis thaliana; wild type
  effect on wild type plants (swollen organs): did not
Arabidopsis ixr mutants; ixr1-1 and ixr1-2 mutations
  resistance of mutants to the herbicide: high level of resistance
Arabidopsis ixr mutants; ixr1-1 homozygotes
  drug tolerance of ixr1-1 relative to wild type: approximately 300 times
Arabidopsis ixr mutants; ixr1-2 and ixr2-1, forward chemical genetics screen
  resistance of mutants to the cellulose synthesis inhibitor: conferring resistance
plants
  lethal dose: 5 nM
